The values that follow come from patent US12157730B2, “Heteroaryl derivative, method for producing same, and pharmaceutical composition comprising same as effective component” (VORONOI INC., priority 2019, dated 2024).

Each structure is given as a SMILES string.

This assay deals with T1, Ba/F3 cell EGFR Exon20 ins NPH (Homo sapiens, UniProt P00533, INS773NPH).
T1 construct: expressed in transfected cells; host or cells: Ba/F3
Description: Ba/F3 cell proliferation suppression, EGFR Exon20 ins NPH. In kind it is cell-based. The following applies: GI50 class; Ba/F3 cell line with NPH inserted at Exon20 of EGFR; 72 hours. As to the method: The following experiment was carried out to evaluate the suppression activity of the compounds according to the present invention against proliferation of Ba/F3 and lung cancer cells which express EGFR mutations.
Of the cancer cell lines expressing the EGFR gene, A549 was cultured after adding 10% FBS (HyClone) to DMEM (Invitrogen), and RPMI-1640 (Invitrogen) with 10% FBS was used for the other cancer cells. For the Ba/F3 cells, RPMI-1640 with 10% FBS and 5 ng/ml IL-3 (R&D Systems) was used. The transduced Ba/F3 cells were cultured by adding 1 ug/ml puromycin (Invitrogen) to the same medium.
24 hours before treatment with the compounds, 3000 to 5000 cells were distributed into each well of a white clear bottom 96 well plate (Corning). The compounds were diluted in dimethylsulfoxide (dilution ratio 3:1; 12 concentrations total) and injected 0.5 ul each for a final concentration of 0.3 nM to 50 um. As for measurement of live cells, 72 hours after treatment with the compounds, a CellTiter-Glo luminescent cell-viability reagent (Promega) was used to store the cells at room temperature for 10 minutes, followed by measurement of luminescence using a reader (SynergyNeo, Biotek). Each test was repeated three times.
The result was calculated as a cell growth ratio (%) compared to a control. The program GraphPad Prism version 5.0 was used to draw the graphs and calculate the GI50 values.
Turning to `C=CC(=O)Nc1cc(Nc2cc(N3OCC[C@@H]3c3ccc(C)nc3)ncn2)c(OC)cc1N1C[C@H]2C[C@@H]1CO2` [Example 224, N-(2-((1R,4R)-2-oxa-5-azabicyclo[2.2.1]heptane-5-yl)-4-methoxy-5-((6-((R)-3-(6-methylpyridine-3-yl)isoxazolidine-2-yl)pyrimidine-4-yl)amino)phenyl)acrylamide], the “Ba/F3 (NPH) Activity” value is on record as “C (500 nM ≤ GI50 < 5000 nM)”.
With `C=CC(=O)Nc1cc(Nc2cc(N3OCC[C@@H]3c3ccc(F)c(F)c3F)ncn2)c(OC)cc1N1CCC(N2CCOCC2)CC1` [compound 621, N-(4-methoxy-2-(4-morpholinopiperidine-1-yl)-5-((6-((R)-3-(2,3,4-trifluorophenyl)isoxazolidine-2-yl)pyrimidine-4-yl)amino)phenyl)acrylamide], the “Ba/F3 (NPH) Activity” value was “A (GI50 < 50 nM)”.
`C=CC(=O)Nc1cc(Nc2cc(N3OCC[C@@H]3c3cc(F)cc(F)c3)ncn2)c(OC)cc1N1C[C@@H]2C[C@H]1CO2` [compound 437, N-(2-((1S,4S)-2-oxa-5-azabicyclo [2.2.1]heptane-5-yl)-5-((6-((R)-3-(3,5-difluorophenyl)isoxazolidine-2-yl)pyrimidine-4-yl)amino)-4-methoxyphenyl) acrylamide]: the “Ba/F3 (NPH) Activity” value is “B (50 nM ≤ GI50 < 500 nM)”.
On to `C=CC(=O)Nc1cc(Nc2cc(N3OCC[C@@H]3c3cc(F)ccc3F)ncn2)c(OC)cc1N1CCC(N2CC[C@@H](N(C)C)C2)CC1` [compound 304, N-(5-((6-((R)-3-(2,5-difluorophenyl)isoxazolidine-2-yl)pyrimidine-4-yl)amino)-2-(4-((R)-3-(dimethylamino)pyrolidine-1-yl)piperidine-1-yl)-4-methoxyphenyl) acrylamide], for which the “Ba/F3 (NPH) Activity” value is given as “A (GI50 < 50 nM)”.
With `C=CC(=O)Nc1cc(Nc2cc(N3OCC[C@@H]3c3cc(F)ccc3F)ncn2)c(OC)cc1N1C[C@@H]2C[C@H]1CO2` [compound 329, N-(2-((1S,4S)-2-oxa-5-azabicyclo[2.2.1]heptane-5-yl)-5-((6-((R)-3-(2,5-difluorophenyl)isoxazolidine-2-yl)pyrimidine-4-yl)amino)-4-methoxyphenyl) acrylamide], the “Ba/F3 (NPH) Activity” value is “A (GI50 < 50 nM)”.
As for `C=CC(=O)Nc1cc(Nc2cc(N3OCC[C@@H]3c3cccc(C(F)(F)F)c3)ncn2)c(OC)cc1N1CCC(N2CCOCC2)CC1` [compound 504, N-(4-methoxy-2-(4-morpholinopiperidine-1-yl)-5-((6-((R)-3-(3-(trifluoromethyl)phenyl)isoxazolidine-2-yl)pyrimidine-4-yl)amino)phenyl)acrylamide], the “Ba/F3 (NPH) Activity” value is on record as “A (GI50 < 50 nM)”.
For `C=CC(=O)Nc1cc(Nc2cc(N3OCC[C@@H]3c3cccc(C)c3F)ncn2)c(OC)cc1N(C)CCN(C)C` [compound 846, N-(2-((2-(dimethylamino)ethyl) (methyl)amino)-5-((6-((R)-3-(2-fluoro-3-methylphenyl)isoxazolidine-2-yl)pyrimidine-4-yl)amino)-4-methoxyphenyl) acrylamide], the “Ba/F3 (NPH) Activity” value is “A (GI50 < 50 nM)”.
Regarding `C=CC(=O)Nc1cc(Nc2cc(N3OCC[C@@H]3c3ccc(F)cc3F)ncn2)c(OC)cc1-n1cncc1C` [compound 377, N-(5-((6-((R)-3-(2,4-difluorophenyl)isoxazolidine-2-yl)pyrimidine-4-yl)amino)-4-methoxy-2-(5-methyl-1H-imidazole-1-yl)phenyl)acrylamide], the “Ba/F3 (NPH) Activity” value is given as “B (50 nM ≤ GI50 < 500 nM)”.
On to `C=CC(=O)Nc1cc(Nc2cc(N3OCC[C@@H]3c3cccc4ccccc34)ncn2)c(OC)cc1N1CCC(N2CCN(C3CC3)[C@@H](C)C2)CC1` [Example 156, N-(2-(4-((S)-4-cyclopropyl-3-methylpiperazine-1-yl)piperidine-1-yl)-4-methoxy-5-((6-((R)-3-(naphthalene-1-yl)isoxazolidine-2-yl)pyrimidine-4-yl)amino)phenyl)acrylamide], for which the “Ba/F3 (NPH) Activity” value is recorded as “A (GI50 < 50 nM)”.
On to `C=CC(=O)Nc1cc(Nc2cc(N3OCC[C@@H]3c3ccc(Cl)c(Cl)c3F)ncn2)c(OC)cc1N1CC[C@@H](N(C)C)C1` [Example 291, N-(5-((6-((R)-3-(3,4-dichloro-2-fluorophenyl)isoxazolidine-2-yl)pyrimidine-4-yl)amino)-2-((R)-3-(dimethylamino)pyrolidine-1-yl)-4-methoxyphenyl) acrylamide], for which the “Ba/F3 (NPH) Activity” value was “B (50 nM ≤ GI50 < 500 nM)”.
As to `C=CC(=O)Nc1cc(Nc2cc(N3OCC[C@@H]3c3ccc(F)c(Cl)c3)ncn2)c(OC)cc1N1CCC(N2C[C@H]3CC[C@@H](C2)O3)CC1` [compound 871, N-(2-(4-((1R,5S)-8-oxa-3-azabicyclo [3.2.1]octan-3-yl)piperidine-1-yl)-5-((6-((R)-3-(3-chloro-4-fluorophenyl)isoxazolidine-2-yl)pyrimidine-4-yl)amino)-4-methoxyphenyl) acrylamide], the “Ba/F3 (NPH) Activity” value is listed as “A (GI50 < 50 nM)”.
Regarding `C=CC(=O)Nc1cc(Nc2cc(N3OCC[C@@H]3c3ccc4ccccc4c3)ncn2)c(OC)cc1N1CC[C@@H](N(C)C)C1` [compound 513, N-(2-((R)-3-(dimethylamino)pyrolidine-1-yl)-4-methoxy-5-((6-((R)-3-(naphthalene-2-yl)isoxazolidine-2-yl)pyrimidine-4-yl)amino)phenyl)acrylamide], the “Ba/F3 (NPH) Activity” value is “B (50 nM ≤ GI50 < 500 nM)”.
Consider `C=CC(=O)Nc1cc(Nc2cc(N3OCC[C@@H]3c3cccc(Cl)c3F)ncn2)c(OC)cc1N1CCC(N2CCO[C@@H](C)C2)CC1` [compound 356, N-(5-((6-((R)-3-(3-chloro-2-fluorophenyl)isoxazolidine-2-yl)pyrimidine-4-yl)amino)-4-methoxy-2-(4-((S)-2-methylmorpholino)piperidine-1-yl)phenyl) acrylamide], for which the “Ba/F3 (NPH) Activity” value is “A (GI50 < 50 nM)”.
For `C=CC(=O)Nc1cc(Nc2cc(N3OCC[C@@H]3c3cccc(F)c3Cl)ncn2)c(OC)cc1N1CCC(N2CCN(C3CCC3)CC2)CC1` [Example 192, N-(5-((6-((R)-3-(2-chloro-3-fluorophenyl)isoxazolidine-2-yl)pyrimidine-4-yl)amino)-2-(4-(4-cyclobutylpiperazine-1-yl)piperidine-1-yl)-4-methoxyphenyl) acrylamide], the “Ba/F3 (NPH) Activity” value is reported as “A (GI50 < 50 nM)”.
With `C=CC(=O)Nc1cc(Nc2cc(N3OCC[C@@H]3c3ccc(F)cc3F)ncn2)c(OC)cc1N1CCC(N2CCN(C3CCCC3)CC2)CC1` [Example 205, N-(2-(4-(4-cyclopentylpiperazine-1-yl)piperidine-1-yl)-5-((6-((R)-3-(2,4-difluorophenyl)isoxazolidine-2-yl)pyrimidine-4-yl)amino)-4-methoxyphenyl) acrylamide], the “Ba/F3 (NPH) Activity” value is “A (GI50 < 50 nM)”.
With `C=CC(=O)Nc1cc(Nc2cc(N3OCC[C@@H]3c3cc(F)cc(F)c3)ncn2)c(OC)cc1N1CCC(N2C[C@@H](C)N(CC)[C@@H](C)C2)CC1` [compound 827, N-(5-((6-((R)-3-(3,5-difluorophenyl)isoxazolidine-2-yl)pyrimidine-4-yl)amino)-2-(4-((3S,5R)-4-ethyl-3,5-dimethylpiperazine-1-yl)piperidine-1-yl)-4-methoxyphenyl) acrylamide], the “Ba/F3 (NPH) Activity” value is on record as “A (GI50 < 50 nM)”.
For the compound `C=CC(=O)Nc1cc(Nc2cc(N3OCC[C@@H]3c3cccc(Cl)c3F)ncn2)c(OC)cc1N1CCC(N2C[C@@H](C)N(C3CC3)C[C@H]2C)CC1` [Example 122, N-(5-((6-((R)-3-(3-chloro-2-fluorophenyl)isoxazolidine-2-yl)pyrimidine-4-yl)amino)-2-(4-((2R,5R)-4-cyclopropyl-2,5-dimethylpiperazine-1-yl)piperidine-1-yl)-4-methoxyphenyl) acrylamide], the “Ba/F3 (NPH) Activity” value is “A (GI50 < 50 nM)”.
The entry for `C=CC(=O)Nc1cc(Nc2cc(N3OCC[C@@H]3c3ccc4ccccc4c3)ncn2)c(OC)cc1N1CCC(N(C)C)CC1` [compound 510, N-(2-(4-(dimethylamino)piperidine-1-yl)-4-methoxy-5-((6-((R)-3-(naphthalene-2-yl)isoxazolidine-2-yl)pyrimidine-4-yl)amino)phenyl)acrylamide] is “B (50 nM ≤ GI50 < 500 nM)”; for `C=CC(=O)Nc1cc(Nc2cc(N3OCC[C@@H]3c3ccc(F)cc3F)ncn2)c(OC)cc1N1CC[C@@H](N(C)C)C1` [compound 376, N-(5-((6-((R)-3-(2,4-difluorophenyl)isoxazolidine-2-yl)pyrimidine-4-yl)amino)-2-((R)-3-(dimethylamino)pyrolidine-1-yl)-4-methoxyphenyl) acrylamide] it is “A (GI50 < 50 nM)”; for `C=CC(=O)Nc1cc(Nc2cc(N3OCC[C@@H]3c3ccc(Cl)c(F)c3)ncn2)c(OC)cc1N1CCN(C2CC2)CC1` [compound 364, N-(5-((6-((R)-3-(4-chloro-3-fluorophenyl)isoxazolidine-2-yl)pyrimidine-4-yl)amino)-2-(4-cyclopropylpiperazine-1-yl)-4-methoxyphenyl) acrylamide] it is “A (GI50 < 50 nM)”.
